Earlier results, collected in patent US10772813B2, “Compositions and methods of administering a colchicine based topical composition for the prevention of radiation fibrosis” (Colradel, LLC, priority 2016, dated 2020).
Entries after “also recorded” stand apart in the source; their conditions may differ.

Assays:
fibroblasts = conditions: low doses
[1] = tested on: radiation-induced fibrosis; conditions: single agent, oral
[2] = topical vs high oral doses

## COc1cc2c(c(OC)c1OC)-c1ccc(OC)c(=O)cc1[C@@H](NC(C)=O)CC2 [colchicine]
fibroblasts
  inhibition of fibroblast migration: 93%
  side effects: without any side effects
0.2% colchicine ointment compared with 0.5%
  concentration in the skin / dermis: same concentration in the dermis 0.5%; also recorded: the same concentration in the skin as 0.5%
0.2% formulation (0.2 gram in 100 ml), transdermal ointment
  side effects: no side effects
ointment, treatment of gout
  transdermal absorption: well-absorbed transdermally

## CC(=O)CCCCn1c(=O)c2c(ncn2C)n(C)c1=O [pentoxifylline, 3,7-dimethyl-1-5-(5-oxohexyl)-xanthine]
[1]
  improvement in late radiation-induced fibrosis: significant improvement

## tocopherol [vitamin E]
[2]
  concentration achievable by topical administration versus high doses orally: 11 times
